Reference: publication PMC3225327 (Journal of Biomedical Science, 2011)

Experiments:
[1] = tested on: duration of xylazine/ketamine-induced anesthesia; assay: Xylazine/ketamine-induced anesthesia; conditions: 10~100 μmol/kg s.c., 1 h before anesthesia
Experimental: After loss of the righting reflex (i.e., when a mouse remained on its back and no longer spontaneously righted itself to a prone position), the duration of anesthesia was measured until its return as the endpoint.

[2] = tested on: high-affinity rolipram-binding sites (HARBSs) of guinea pig brain cell membranes; assay: Displacement of 2 nM [3H]-rolipram from high-affinity rolipram-binding sites (PDE4H)
Experimental: When the above-mentioned guinea pigs were sacrificed, the whole brains were removed and homogenized with a glass/Teflon homogenizer (Glas-Col, Terre Haute, IN, USA) in 10 volumes of cold medium (pH 6.5) containing 20 mM Bis-Tris, 2 mM benzamidine, 2 mM EDTA, 50 mM sodium chloride, 0.1 mM PMSF, and 1 mM dithiothreitol. At 4°C, the homogenate was centrifuged at 170 g for 5 min to remove connective tissues and blood vessels. The suspended homogenate was then re-centrifuged at 40,000 g for 30 min to separate the cytosolic and particulate portions. The particulate portion was re-suspended in a suspension at a concentration of 400 mg/ml (wet weight/volume), after washing three times with homogenizing buffer. The particulate portion mainly consisted of cell membranes. […] Briefly, the reaction buffer consisted of 50 mM Tris-HCl and 5 mM MgCl2 (pH 7.5). […] After 1 h, the reaction was terminated by moving the reaction vessel into crushed ice. Then the reaction mixture was transferred onto Whatman GF/B glass-fiber filters, which were soaked in a 0.3% polyethyleneimine solution in a mini-funnel.

PDE5 = assay: Inhibition of PDE5 activity, two-step procedure; assay type: biochemical; conditions: homogenate of guinea pig lungs or hearts
Experimental: (§1) Activities of PDE1~5 in the homogenate of guinea pig lungs or hearts were measured by a two-step procedure according to the previous method, using cAMP with [^3H]-cAMP or cGMP with [^3H]-cGMP as substrates. […] The reagents and homogenate were mixed on ice, and the reaction was initiated by transferring the mixture to a water bath at 37°C. Following a 30-min incubation, the reaction was stopped by transferring the reaction vessel to a bath of boiling water for 3 min. After cooling on ice, 20 μl of a 1 mg/ml solution of Crotalus atrox snake venom was added to the reaction mixture, and the mixture was incubated at 37°C for 10 min. Unreacted [^3H]-cAMP or [^3H]-cGMP was removed by the addition of 500 μl of a 1-in-1 Tris-HCl (40 mM) buffer suspension of Dowex resin (1 × 8-200) with incubation on ice for 30 min. Each tube was then centrifuged at 3700 g for 2 min, and 150 μl of the supernatant was removed for liquid scintillation counting. […] The total protein in each fraction used was assayed according to a previous method. PDE activities are reported as nmol/mg/min.

PDE1 = assay: Inhibition of PDE1 activity, two-step procedure; assay type: biochemical; conditions: homogenate of guinea pig lungs or hearts
Experimental: as §1

PDE3 = assay: Inhibition of PDE3 activity, two-step procedure; assay type: biochemical; conditions: homogenate of guinea pig lungs or hearts
Experimental: as §1

[3] = tested on: cytokines in bronchoalveolar lavage fluid; assay: Cytokine levels in BALF of sensitized and challenged mice (CBA kits); assay type: in vivo, BABL/c mice
Experimental: According to the schedule (Figure 1), ten female BABL/c mice in each group were sensitized by an intraperitoneal (i.p.) injection of 20 μg of OVA emulsified in 2.25 mg of an aluminum hydroxide gel, prepared from aluminum sulfate hexadecahydrate, in a total volume of 100 μl on days 0 and 14. On day 21, these mice were injected with (i.p.) 100 μl of a mixture of 1% OVA and Freund's complete adjuvant (1:1). Mice were challenged via the airway using 1% OVA in saline for 30 min on days 28, 29, and 30 by ultrasonic nebulization. After the last of OVA challenges, AHR was assessed on day 32 (48 h after 1% OVA provocation) in each group. […] For comparison, sham-treated mice were challenged with saline instead of 1% OVA (non-challenged). […] AHR was assessed using two methods: (1) in anesthetized ventilated mice, AHR was assessed as previously described by measuring changes in the airway resistance (RL, cmH2O/ml/sec) and lung dynamic compliance (Cdyn, ml/cmH2O) after challenge with aerosolized methacholine (MCh, 0.78~25 mg/ml) using the FlexiVent system (SCIREQ, Montreal, Quebec, Canada). Anesthetized (urethane 600 mg/kg and chloralose 120 mg/kg, i.p.), tracheostomized (stainless-steel cannula, 18 G) mice were mechanically ventilated (at 150 breaths/min, with a tidal volume of 10 ml/kg, positive end-expiratory pressure of 3 cmH2O). (2) in unrestrained animals by barometric plethysmography using a whole-body plethysmograph (WBP) and analyzed using software of Life Science Suite P3 Analysis Modules (Gould, LDS Test and Measurement LLC, Valley View, OH, USA). Mice were placed into the main chamber of the WBP, and the baseline enhanced pause (Penh) value was determined. […] Twenty-four hours after Penh determination, these mice were anesthetized with pentobarbital (50 mg/kg, i.p.), and the lungs were lavaged via a tracheal tube with PBS (1 × 1.0 ml, 37°C). After lavage, blood was collected from the jugular vein and allowed to sit so that it would coagulate. The collected bronchoalveolar lavage fluid (BALF) and coagulated blood were respectively centrifuged at 630 g for 7 min and at 3700 g for 10 min at 4°C. After centrifugation, the BALF and serum supernatants were stored at -20°C until determination of cytokines, including interleukin (IL)-2, IL-4, IL-5, tumor necrosis factor (TNF)-α, and interferon (IFN)-γ by flow cytometric methods using mouse T helper (Th)1/Th2 cytokine CBA kits, and of total immunoglobulin (Ig)E or IgG2a using ELISA kits (Pharmingen, San Diego, CA, USA) according to the respective recommendations of the manufacturers. OVA-specific IgE was measured as described previously. Wells were coated with 100 μl of OVA (20 μg/ml) instead of the capture antibody. Levels are expressed in arbitrary units, where 1 arbitrary unit equals the optical density of the sample divided by the optical density of unchallenged mouse serum or BALF (standard). The BALF pellet was resuspended in ACK lysing buffer (1.658 g NH4Cl, 0.2 g KHCO3 and 1.44 mg EDTA in 200 ml of water) to lyse the residual erythrocytes in each sample. The number of inflammatory cells was counted using a hemocytometer (Hausser Scientific, Horsham, PA, USA). Cytospun slides were stained and differentiated in a blinded fashion by counting at least 100 cells under light microscopy. All undetectable data (< 1 pg/ml) of cytokines were taken as 0 pg/ml.

PDE2 = assay: Inhibition of PDE2 activity, two-step procedure; assay type: biochemical; conditions: homogenate of guinea pig lungs or hearts
Experimental: as §1

COc1cc(O)c2c(c1)O[C@H](c1ccc(OC)c(OC)c1)CC2=O [HDME, hesperetin-7,3'-O-dimethylether]
effect on duration of xylazine/ketamine-induced anesthesia [1]: did not significantly influnce
EC50 ([2]; 2 nM [3H]-rolipram, 30°C, 1 h, read-out: EC50 (PDE4H) for displacing [3H]-rolipram binding): 107 ± 39.5 µM
PDE4H/PDE4L ratio (therapeutic ratio) ([2]; EC50 of [3H]-rolipram displacement / IC50 of PDE4 inhibition): 35.5
IC50 (PDE5): > 100 µM
IC50 (PDE1): 22.1 ± 6.4 µM
IC50 (PDE3): 24.6 ± 3.5 µM
effect on level of IFN-γ in BALF ([3]; 30 μmol/kg p.o.): enhanced
effect on increase in level of IL-2 in BALF ([3]; 3~30 μmol/kg p.o.): significantly suppressed
effect on increase in level of IL-4 in BALF ([3]; 3~30 μmol/kg p.o.): significantly suppressed
effect on increase in level of IL-5 in BALF ([3]; 3~30 μmol/kg p.o.): significantly suppressed
effect on increase in level of TNF-α in BALF ([3]; 3~30 μmol/kg p.o.): significantly suppressed
IC50 (PDE2): > 100 µM
